These results are taken from patent EP0044212B1, “Herbicidal o-alkylsulfonyloxy- and o-alkylsulfonylamino-benzenesulfonamides” (E.I. DU PONT DE NEMOURS AND COMPANY, priority 1980, dated 1982).

The structures appear in SMILES notation.

The subject of one test is Grasses. The test can be described thus: Test C pre-emergence on Fallsington silt loam soil. The class given is in vivo, johnsongrass, barnyardgrass, crabgrass, giant foxtail. As to conditions: 28 days. An excerpt:
The high herbicidal activity of two of the compounds from within the scope of the invention is evident from the results obtained in this test. The experiment concerned pre-emergence applications on soil. The containers used were 25 cm diameter plastic pots filled with Fallsington silt loam. One set of pots was planted to weeds, the seeds of which were uniformly mixed with the top 1.2 cm layer of soil. The species selected were: johnsongrass (Sorghum halepense), barnyardgrass (Echinochloa crusgalli), crabgrass (Digitaria sanguinalis), giant foxtail (Setaria faberii), velvetleaf (Abutilon theophrasti), jimsonweed (Datura stramonium), mustard (Brassica arvensis), and pigweed (Amaranthus retroflexus). Another set of pots were planted to the following crops with from one to four species per pot: corn (planting depth 3.7 cm), cotton, soybeans, sunflower, Clinton oats, wheat, Black Valentine beans, rice, sorghum, peas, flax, and peanuts (all at 2.5 cm depth), cucumbers, cabbage, alfalfa, safflower, sugarbeets, tomato, spinach, barley, and Kentucky bluegrass (all at 1.2 cm depth). Immediately after planting, the test chemical was applied to the soil surfaces dissolved in a non-phytotoxic solvent. One pot from the weed phase and one of each of the crop species were left untreated for the purpose of comparison. The treated and untreated pots were promptly watered with approximatley 4 mm of simultated rainfall and then held in a greenhouse for several weeks. Visual weed and crop response ratings were made 28 days after treatment utilizing the rating system as described above for Test A. The data are given in Table C.

The test system of the next test is Velvetleaf. The experiment in a line: Test F over-the-top soil/foliage treatment. The format is in vivo, Abutilon theophrasti. The note with it: soil/foliage spray, ~14 days. The protocol: The test chemicals, dissolved in a non-phytotoxic solvent, were applied in an overall spray to the foliage and surrounding […] of selected plant species. […] Approximately fourteen days after treatment, all species were visually compared to untreated controls and rated for response to treatment.
All plant species were seeded in Woodstown sandy loam soil and grown in a greenhouse. The following species were grown in soil contained in plastic pots (25 cm diameter by 13 cm deep): soybeans, cotton, alfalfa, corn, rice, wheet, sorghum, velvetleaf (Abutilon theophrasti), sesbania (Sesbania exaltata), Cassia (Cassia tora), morningglory (Ipomoea hederacea), jimsonweed (Datura stramonium), cocklebur (Xanthium pensylvanicum), crabgrass (Digitaria spp.), nutsedge (Cyperus rotundus), barnyardgrass (Echinochloa crusgalli), giant foxtail (Setaria faberii) and wild oats (Avena fatua). The following species were grown in soil in a paper cup (12 cm diameter by 13 cm deep): sunflower, sugarbeets, and mustard. All plants were sprayed approximately 14 days after planting.

For another test, the system named is Italian Ryegrass. The test can be described thus: Test D pre-/post-emergence weed control in cereals. The note with it: 20 days. The format is in vivo, Lolium multiflorum. The source says: Two ten-inch in diameter plastic pans lined with polyethylene liners were filled with prepared Fallsington slit loam soil. One pan was planted with seeds of wheat (Triticum aestivum), barley (Hordeum vulgarel, wild oats (Avena fatua), downy brome (Bromus tectorum), cheatgrass (Bromus secalinus), blackgrass (Alopecurus myosuroides), annual bluegrass (Poa annual, green foxtail (Setaria viridis), quack grass (Agropyron repens), Italian ryegrass (Lolium multiflorum) and ripgut brome (Bromus rigidus). The other pan was planted with seeds of Russian thistle (Salsola kali), tansy mustard (Descuraina pinnata), smartweed (Polygonum pensylvanicum), tumble mustard (Sisymbrium altissium) kochia (Kochia scoparia), shepherd's purse (Capsella bursa-pastoris), Matricaria inodora, black nightshade (Solanum nigrum), yellow rocket (Barbarea vulgaris), wild mustard (Brassica kaber) and wild buckwheat (Polygonum convolvulus). The above two pans were treated pre-emergence. At the same time two pans in which the above plant species were growing were treated post-emergence. Plant height at the time of treatment ranged from 1-15 cm depending on plant species.
The compounds applied were diluted with a non-phytotoxic solvent and sprayed over-the-top of the pans. An untreated control and a solvent alone control were included for comparison. All treatments were maintained in the greenhouse for 20 days at which time the treatments were compared to the controls and the effects visually rated. The recorded data, presented in Table D, indicate that certain compounds from within the scope of the invention have utility for pre- and/or post-emergence weed control in cereal crops such as wheat and barley.

The test system of the next test is Mustard. The experiment in a line: Test G broadleaf herbicidal properties, overall spray. The class given is in vivo. The note with it: 0.015 kg/ha, 22 days after treatment. The protocol: (§1) Approximately 12 soybean plants were grown in a 25 cm. diameter plastic pot. In another pot of equal size the following broadleaf plant species were grown: sugarbeets, velvetleaf, Sesbania, Cassia, mustard, morningglory, alfalfa, jimsonweed, and cocklebur. The plant foliage and surrounding soil were treated with the test chemical dissolved in a non-phytotoxic solvent as an overall spray at the rate of 0.015 kg/ha, when the plants were 17 days old. Visual ratings of herbicidal effects were made 22 days after treatment utilizing the rating system described for Test A.

The test system of a further test is Jimsonweed. The test is described as above. The note with it: 0.015 kg/ha, 22 days after treatment. The format is in vivo. The protocol: as §1
Another test relates to Sugarbeets. The description is as above. The class given is in vivo. As to conditions: 0.015 kg/ha, 22 days after treatment. As to the method: as §1

Take `COc1cc(OC)nc(NC(=O)NS(=O)(=O)c2ccccc2OS(C)(=O)=O)n1` [Compound 1, N-[(4,6-Dimethoxypyrimidin-2-yl)aminocarbonyl]-2-hydroxybenzenesulfonamide, methanesulfonate]: the figures for the Grasses response rating in the test on Grasses (0.0035 kg/ha), in the test with Grasses (0.0075 kg/ha) and in the test on Grasses (0.015 kg/ha) were 0, 0 and 2G, respectively.
In the case of `Cc1cc(C)nc(NC(=O)NS(=O)(=O)c2ccccc2OS(C)(=O)=O)n1` [Compound 3, N-[(4,6-dimethylpyrimidin-2-yl)aminocarbonyl]-2-hydroxybenzenesulfonamide, methanesulfonate], the Velvetleaf response rating in the test on Velvetleaf (0.003 kg/ha) came to 7G; in the test with Velvetleaf (0.015 kg/ha), 5G.
Turning to `CCCS(=O)(=O)Oc1ccccc1S(=O)(=O)NC(=O)Nc1nc(OC)cc(OC)n1` [Compound 36, N-[(4,6-dimethoxypropimidin-2-yl)aminocarbonyl]-2-hydroxybenzenesulfonamide, 1-propanesulfonate], the “Italian Ryegrass response rating” value in the test on Italian Ryegrass (Post-Emergence, 0.015 kg/ha) worked out at 0; in the test on Italian Ryegrass (Post-Emergence, 0.06 kg/ha), 0; in the test with Italian Ryegrass (Pre-Emergence, 0.015 kg/ha) it was 1G; in the test with Italian Ryegrass (Pre-Emergence, 0.06 kg/ha), 3G.
Consider `CCCS(=O)(=O)Oc1ccccc1S(=O)(=O)NC(=O)Nc1nc(C)nc(OC)n1` [Compound 39, 2-hydroxy-N-[(4-methoxy-6-methyl-1,3,5-triazin-2-yl)aminocarbonyl]benzenesulfonamide, 1-propanesulfonate], for which, in the test with Mustard, the Mustard response rating came to 10C. In addition, the Jimsonweed response rating with Jimsonweed stood at 0. In the test on Sugarbeets, this compound gave a Sugarbeets response rating of 9G.
